Patent US20260306640A1, “TECHNOLOGIES TARGETING CELL STATES” (Auron Therapeutics, Inc., priority 2023, published 2026)

What was measured:
Format in all cases: cell-based
[1] = biological target: T1, KAT2A (Homo sapiens, UniProt Q92830); assay: KAT2A degradation, Western Blot (Jess), MOLM-13 cells; parameters: degrader, Western blot; conditions: MOLM-13 cells, KAT2A, 24 h, Western Blot, vs DMSO; read-out: KAT2A MOLM-13 DC50
Method: MOLM-13 cells or NCI-H1048 cells were used for Western Blot analysis of KAT2A degradation. KAT2B degradation can be measured in a similar manner with NCI-H1048 cells.
MOLM-13 cells were maintained at 37° C. in 5% CO2 and 90% humidity in RPMI 1640 supplemented with 20% fetal bovine serum (FBS) and 1× penicillin/streptomycin. Cells were plated in full media at 1-2 million cells/2 mL in a 6-well tissue culture treated plate with or without compounds for 24 h at 37° C. in 5% CO2.
MOLM-13 cells or NCI-H1048 cells were washed with PBS, then lysed with RIPA buffer containing 1×protease and phosphatase inhibitors (SantaCruz Biotechnologies Cat #sc-24948A). Protein was isolated by centrifugation at 12,000×g for 10 minutes at 4° C. and supernatant was collected. Protein was quantified via Bradford assay. Samples were diluted to 4 μg lysate in 16 μL RIPA buffer and then 4 μL of Jess Sample Buffer. Samples were heated at 95° C. for 5 minutes. Samples were loaded onto 12-230 kDa Jess™ Separation Module, 8×25 capillary cartridges (SM-W004, Biotechne). Antibodies loaded were: Primary antibody for KAT2A (GCN5L2 (C26A10) Rabbit mAb (3305, CST)) and for KAT2B (PCAF (C14G9)) Rabbit mAb (3378, CST) at 1:1000 and Anti-Rabbit Detection Module for Jess™ (Cat No #DM-001, Biotechne). Signal was detected by chemiluminescence.
DC50 values were determined from percent reduction of protein as compared to the DMSO control.

[2] = biological target: KAT2B (Homo sapiens, UniProt Q92831); assay: KAT2B degradation, Western Blot (Jess), NCI-H1048 cells; parameters: degrader, Western blot (Jess); conditions: NCI-H1048 cells, KAT2B, 24 h, Western Blot, vs DMSO; read-out: KAT2B NCI-H1048 DC50
How it was run: (§1)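 NCI-H1048 cells grown in HITES medium with 5% FBS were treated with compounds for 24 h at 37° C. Lysates were run by capillary Western (Jess) with KAT2A or KAT2B antibodies and chemiluminescent detection. DC50 derived from percent protein reduction versus DMSO control.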

[3] = biological target: T1, KAT2A; assay: KAT2A degradation, Western Blot (Jess), NCI-H1048 cells; parameters: degrader, Western blot (Jess); conditions: NCI-H1048 cells, KAT2A, 24 h, Western Blot, vs DMSO; read-out: KAT2A NCI-H1048 DC50
How it was run: as §1

T1 sequence (Q92830 whole entry): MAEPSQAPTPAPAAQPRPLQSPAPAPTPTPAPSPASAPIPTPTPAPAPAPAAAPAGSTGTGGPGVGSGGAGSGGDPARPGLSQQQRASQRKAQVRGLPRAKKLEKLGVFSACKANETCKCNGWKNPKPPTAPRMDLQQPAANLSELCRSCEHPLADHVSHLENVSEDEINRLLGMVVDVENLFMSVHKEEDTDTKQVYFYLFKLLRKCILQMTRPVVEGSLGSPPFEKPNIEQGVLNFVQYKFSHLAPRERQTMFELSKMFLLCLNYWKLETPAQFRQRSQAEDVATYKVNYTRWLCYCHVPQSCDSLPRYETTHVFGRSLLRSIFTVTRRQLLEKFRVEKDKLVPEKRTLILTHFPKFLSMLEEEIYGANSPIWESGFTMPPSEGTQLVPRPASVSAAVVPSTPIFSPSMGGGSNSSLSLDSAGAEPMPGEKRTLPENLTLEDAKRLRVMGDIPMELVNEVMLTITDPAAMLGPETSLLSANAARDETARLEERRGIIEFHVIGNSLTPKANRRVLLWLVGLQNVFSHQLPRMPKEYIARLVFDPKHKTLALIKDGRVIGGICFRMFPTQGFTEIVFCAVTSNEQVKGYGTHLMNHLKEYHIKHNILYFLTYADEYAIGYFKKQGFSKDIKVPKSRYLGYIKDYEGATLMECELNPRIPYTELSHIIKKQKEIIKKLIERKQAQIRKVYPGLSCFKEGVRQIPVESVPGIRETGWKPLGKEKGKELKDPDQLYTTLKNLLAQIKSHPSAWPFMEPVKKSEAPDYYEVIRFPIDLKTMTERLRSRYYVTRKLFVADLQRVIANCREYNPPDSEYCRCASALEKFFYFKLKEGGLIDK
Chain of KAT2B (Q92831 whole entry): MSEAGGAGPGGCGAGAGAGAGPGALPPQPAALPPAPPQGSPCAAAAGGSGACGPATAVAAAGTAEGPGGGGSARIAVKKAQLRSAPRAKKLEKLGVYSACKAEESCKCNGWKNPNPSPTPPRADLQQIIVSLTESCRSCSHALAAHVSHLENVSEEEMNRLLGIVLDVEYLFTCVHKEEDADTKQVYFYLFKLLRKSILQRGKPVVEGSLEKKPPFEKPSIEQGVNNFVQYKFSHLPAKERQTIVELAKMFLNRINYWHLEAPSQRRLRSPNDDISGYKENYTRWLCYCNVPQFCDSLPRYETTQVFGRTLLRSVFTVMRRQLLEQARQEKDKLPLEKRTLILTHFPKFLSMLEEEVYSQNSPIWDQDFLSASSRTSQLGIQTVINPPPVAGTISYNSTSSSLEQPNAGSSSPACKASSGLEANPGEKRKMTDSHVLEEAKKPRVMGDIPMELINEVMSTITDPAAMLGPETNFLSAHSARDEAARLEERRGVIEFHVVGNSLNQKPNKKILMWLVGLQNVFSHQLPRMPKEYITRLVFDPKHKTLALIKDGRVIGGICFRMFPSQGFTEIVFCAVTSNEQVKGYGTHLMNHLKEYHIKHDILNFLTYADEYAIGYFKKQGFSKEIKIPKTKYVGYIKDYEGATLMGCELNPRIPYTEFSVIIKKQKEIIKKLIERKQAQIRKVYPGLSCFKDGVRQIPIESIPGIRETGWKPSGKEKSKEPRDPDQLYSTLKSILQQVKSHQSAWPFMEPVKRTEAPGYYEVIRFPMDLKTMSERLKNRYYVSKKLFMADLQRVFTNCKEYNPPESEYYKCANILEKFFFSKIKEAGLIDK

| SMILES | DC50 [1] | DC50 [2] | DC50 [3] |
| --- | --- | --- | --- |
| CN1C[C@H](Nc2cnn(C)c(=O)c2Br)C[C@H](c2ccc(C(=O)N(C)c3ccc(Oc4cccc5c4C(=O)N(C4CCC(=O)NC4=O)C5=O)cc3)cc2)C1 (some centres unmarked) [Compound 1] | 1 to 30 nM | – | – |
| CN1C[C@H](Nc2cnn(C)c(=O)c2Br)C[C@H](c2ccc(C(=O)N(C)c3ccc(CCCOc4cccc5c4C(=O)N(C4CCC(=O)NC4=O)C5=O)cc3)cc2)C1 (some centres unmarked) [Compound 2] | 1 to 30 nM | – | – |
| CN1C[C@H](Nc2cnn(C)c(=O)c2Br)C[C@H](c2ccc(C(=O)NCCCCCCCCCC(=O)Nc3ccc4c(c3)CN(C3CCC(=O)NC3=O)C4=O)cc2)C1 (some centres unmarked) [Compound 3] | < 1 nM | – | – |
| CN1C[C@H](Nc2cnn(C)c(=O)c2Br)C[C@H](c2ccc(C(=O)NCCOCC(=O)Nc3ccc4c(c3)CN(C3CCC(=O)NC3=O)C4=O)cc2)C1 (some centres unmarked) [Compound 4] | > 30 nM | – | – |
| CN1C[C@H](Nc2cnn(C)c(=O)c2Br)C[C@H](c2ccc(C(=O)N3CCC(C#CC(=O)Nc4ccc5c(c4)CN(C4CCC(=O)NC4=O)C5=O)CC3)cc2)C1 (some centres unmarked) [Compound 5] | 1 to 30 nM | – | – |
| CN1C[C@H](Nc2cnn(C)c(=O)c2Br)C[C@H](c2ccc(C(=O)N3CCN(Cc4ccc(C(=O)Nc5cccc6c5C(=O)N(C5CCC(=O)NC5=O)C6=O)cc4)CC3)cc2)C1 (some centres unmarked) [Compound 6] | < 1 nM | – | – |
| CN1C[C@H](Nc2cnn(C)c(=O)c2Br)C[C@H](c2ccc(C(=O)N3CCN(CCOCCC(=O)Nc4cccc5c4C(=O)N(C4CCC(=O)NC4=O)C5=O)CC3)cc2)C1 (some centres unmarked) [Compound 7] | 1 to 30 nM | – | – |
| CN1C[C@H](Nc2cnn(C)c(=O)c2Br)C[C@H](c2ccc(C(=O)N(C)CCCCC#CCCCOc3cccc4c3C(=O)N(C3CCC(=O)NC3=O)C4=O)cc2)C1 (some centres unmarked) [Compound 8] | 1 to 30 nM | – | – |
| CN1C[C@H](Nc2cnn(C)c(=O)c2Br)C[C@H](c2ccc(C(=O)N3CCN(CC4CCN(c5cccc6c5C(=O)N(C5CCC(=O)NC5=O)C6=O)CC4)CC3)cc2)C1 (some centres unmarked) [Compound 9] | < 1 nM | – | – |
| CN1C[C@H](Nc2cnn(C)c(=O)c2Br)C[C@H](c2ccc(C(=O)N3CCC(C(=O)N4CCN(c5cccc6c5C(=O)N(C5CCC(=O)NC5=O)C6=O)CC4)CC3)cc2)C1 (some centres unmarked) [Compound 10] | 1 to 30 nM | – | – |
| CN1C[C@H](Nc2cnn(C)c(=O)c2Br)C[C@H](c2ccc(C(=O)NCCCCCCOCCOCC(=O)Nc3cccc4c3C(=O)N(C3CCC(=O)NC3=O)C4=O)cc2)C1 (some centres unmarked) [Compound 12] | 1 to 30 nM | – | – |
| CN1C[C@H](Nc2cnn(C)c(=O)c2Br)C[C@H](c2ccc(C(=O)N(C)C3CCN(c4cccc5c4C(=O)N(C4CCC(=O)NC4=O)C5=O)CC3)cc2)C1 (some centres unmarked) [Compound 13] | 1 to 30 nM | – | – |
| CN1C[C@H](Nc2cnn(C)c(=O)c2Br)C[C@H](c2ccc(C(=O)N3CCN(c4cccc5c4C(=O)N(C4CCC(=O)NC4=O)C5=O)CC3)cc2)C1 (some centres unmarked) [Compound 14] | < 1 nM | – | – |
| CN1C[C@H](Nc2cnn(C)c(=O)c2Br)C[C@H](c2ccc(C(=O)NC3CCN(c4cccc5c4C(=O)N(C4CCC(=O)NC4=O)C5=O)CC3)cc2)C1 (some centres unmarked) [Compound 15] | 1 to 30 nM | – | – |
| CN1C[C@H](Nc2cnn(C)c(=O)c2Br)C[C@H](c2ccc(C(=O)N3CCC(Oc4cccc5c4C(=O)N(C4CCC(=O)NC4=O)C5=O)CC3)cc2)C1 (some centres unmarked) [Compound 19] | 1 to 30 nM | – | – |
| CN1C[C@H](Nc2cnn(C)c(=O)c2Br)C[C@H](c2ccc(C(=O)N3CCN(Cc4ccc5c(c4)C(=O)N(C4CCC(=O)NC4=O)C5=O)CC3)cc2)C1 (some centres unmarked) [Compound 25] | < 1 nM | – | – |
| CN1C[C@H](Nc2cnn(C)c(=O)c2Br)C[C@H](c2ccc(C(=O)N(C)c3cccc(Oc4cccc5c4C(=O)N(C4CCC(=O)NC4)C5=O)c3)cc2)C1 (some centres unmarked) [Compound 26] | 1 to 30 nM | – | – |
| CN1C[C@H](Nc2cnn(C)c(=O)c2Br)C[C@H](c2ccc(C(=O)N3CCN(c4cccc5c4C(=O)N(C4CCC(=O)NC4=O)C5=O)CC3)cc2)C1 (some centres unmarked) [Compound 27] | < 1 nM | – | – |
| CN1C[C@H](Nc2cnn(C)c(=O)c2Br)C[C@H](c2ccc(C(=O)N3CC4(C3)CN(c3cccc5c3C(=O)N(C3CCC(=O)NC3=O)C5=O)C4)cc2)C1 (some centres unmarked) [Compound 29] | < 1 nM | – | – |
| CN1C[C@H](Nc2cnn(C)c(=O)c2Br)C[C@H](c2ccc(C(=O)N3CC(Oc4ccc5c(c4)C(=O)N(C4CCC(=O)NC4=O)C5=O)C3)cc2)C1 (some centres unmarked) [Compound 30] | 1 to 30 nM | – | – |
| Cn1ncc(N[C@@H]2C[C@H](c3ccc(C(=O)N4CCC5(CC4)CCN(c4ccc(C6CCC(=O)NC6=O)cc4)CC5)cc3)CN(CC3CC3)C2)c(Br)c1=O (stereo partly drawn) [Compound 425, 3-[4-[3-[4-[(3R,5R)-5-[(5-bromo-1-methyl-6-oxo-pyridazin-4-yl)amino]-1-(cyclopropylmethyl)-3-piperidyl]benzoyl]-3,9-diazaspiro[5.5]undecan-9-yl]phenyl]piperidine-2,6-dione] | – | < 1 nM | < 1 nM |
| CN1C[C@H](Nc2nc3cc[nH]c3c(=O)n2C)C[C@H](c2ccc(C(=O)N3CCC4(CC3)CCN(c3ccc(C5CCC(=O)NC5=O)cc3)CC4)cc2)C1 (stereo partly drawn) [Compound 427, 3-(4-(9-(4-((3R,5R)-1-methyl-5-((3-methyl-4-oxo-4,5-dihydro-3H-pyrrolo[3,2-d]pyrimidin-2-yl)amino)piperidin-3-yl)benzoyl)-3,9-diazaspiro[5.5]undecan-3-yl)phenyl)piperidine-2,6-dione] | – | < 1 nM | < 1 nM |
| C[C@H](Nc1nn(C)c(=O)c2cccnc12)[C@H](c1ccc(C(=O)N2CCC3(CC2)CCN(c2ccc(C4CCC(=O)NC4=O)cc2)CC3)cc1)N(C)C (stereo partly drawn) [Compound 429, 3-(4-(9-(4-((1S,2S)-1-(dimethylamino)-2-((6-methyl-5-oxo-5,6-dihydropyrido[2,3-d]pyridazin-8-yl)amino)propyl)benzoyl)-3,9-diazaspiro[5.5]undecan-3-yl)phenyl)piperidine-2,6-dione] | – | 1 to 30 nM | < 1 nM |
| C[C@H](Nc1nn(C)c(=O)c2ncccc12)[C@H](c1ccc(C(=O)N2CCC3(CC2)CCN(c2ccc(C4CCC(=O)NC4=O)cc2)CC3)cc1)N(C)C (stereo partly drawn) [Compound 430, 3-(4-(9-(4-((1S,2S)-1-(dimethylamino)-2-((7-methyl-8-oxo-7,8-dihydropyrido[2,3-d]pyridazin-5-yl)amino)propyl)benzoyl)-3,9-diazaspiro[5.5]undecan-3-yl)phenyl)-piperidine-2,6-dione] | – | > 30 nM | < 1 nM |
| C[C@H](Nc1nn(C)c(=O)c2ccccc12)[C@H](c1ccc(C(=O)N2CCC3(CC2)CCN(c2ccc(C4CCC(=O)NC4=O)cc2)CC3)cc1)N(C)C (stereo partly drawn) [Compound 432, 3-(4-(9-(4-((1S,2S)-1-(dimethylamino)-2-((3-methyl-4-oxo-3,4-dihydro-phthalazin-1-yl)amino)propyl)benzoyl)-3,9-diazaspiro[5.5]undecan-3-yl)phenyl)piperid-ine-2,6-dione] | – | > 30 nM | < 1 nM |
| CN1C[C@H](Nc2cnn(C)c(=O)c2Br)C[C@H](c2ccc(COc3ccc4c(=O)n(C5CCC(=O)NC5=O)ccc4c3)cc2)C1 (stereo partly drawn) [Compound 433, 3-(6-((4-((3R,5R)-5-((5-bromo-1-methyl-6-oxo-1,6-dihydropyridazin-4-yl)amino)-1-methylpiperidin-3-yl)benzyl)oxy)-1-oxoisoquinolin-2(1H)-yl)piperidine-2,6-dione] | – | 1 to 30 nM | < 1 nM |
| CN1C[C@H](Nc2cnn(C)c(=O)c2Br)C[C@H](c2ccc(N3CCC(Oc4cccc(C5CCC(=O)NC5=O)c4)CC3)cc2)C1 (stereo partly drawn) [Compound 434, 3-(3-((1-(4-((3R,5R)-5-((5-bromo-1-methyl-6-oxo-1,6-dihydropyridazin-4-yl)amino)-1-methylpiperidin-3-yl)phenyl)piperidin-4-yl)oxy)phenyl)piperidine-2,6-dione] | – | < 1 nM | < 1 nM |
| CN1C[C@H](Nc2cnn(C)c(=O)c2Br)C[C@H](c2ccc(CN3CCN(c4cccc(OC5CCC(=O)NC5=O)c4)CC3)cc2)C1 (stereo partly drawn) [Compound 435, 3-(3-(4-(4-((3R,5R)-5-((5-bromo-1-methyl-6-oxo-1,6-dihydropyridazin-4-yl)amino)-1-methylpiperidin-3-yl)benzyl)piperazin-1-yl)phenoxy)piperidine-2,6-dione] | – | > 30 nM | > 30 nM |
| Cc1cc(N2CCC3(CCN(c4ccc([C@H]5C[C@@H](Nc6cnn(C)c(=O)c6Br)CN(C)C5)cc4)CC3)CC2)ccc1C1CCC(=O)NC1=O (stereo partly drawn) [Compound 436, 3-(4-(9-(4-((3R,5R)-5-((5-bromo-1-methyl-6-oxo-1,6-dihydropyridazin-4-yl)amino)-1-methylpiperidin-3-yl)phenyl)-3,9-diazaspiro[5.5]undecan-3-yl)-2-methylphenyl)piperidine-2,6-dione] | – | 1 to 30 nM | < 1 nM |
